According to patent US8084064B2, “Antiwrinkle agent and skin cosmetic composition” (Kao Corporation, priority 2004, dated 2011):
Entries after “also recorded” stand apart in the source; their conditions may differ.

Test system: Hartley guinea pigs (females)
Experiment: Safety (sensitization) maximization test
Type: in vivo, guinea pig
Details: for MR: Mean score (average of reaction scores): erythema score 0-3
Description: Safety (sensitization) was evaluated using a maximization test.
An area of the skin over the scapula measuring 4×6 cm^2 was shaved in Hartley guinea pigs (females) having body weights of 350 to 400 g, and two rows of three intradermal injections per row were made in the order indicated below.
1) 0.05 mL aliquots of Freund's complete adjuvant (hereinafter, to abbreviated as FCA solution) were intradermally injected at two locations on the left and right sides.
2) 0.05 mL aliquots of an olive oil solution containing 10% of a sclareol derivative obtained in the aforementioned producing examples or sclareol were intradermally injected at two locations on the left and right sides.
3) 0.05 mL aliquots of an emulsified solution obtained by adding an equal volume of sterile water to an FCA solution containing 20% sclareol or sclareol derivative obtained in the aforementioned production examples were intradermally injected at two locations on the left and right sides.
The same sites on the animals were shaved one week after these procedures, and vaseline containing 10% sodium lauryl sulfate was rubbed onto the skin to induce mild inflammation. 24 hours after rubbing, 0.2 mL of olive oil solutions containing 10% sclareol derivative sample of the present invention or sclareol were applied to a piece of gauze, which was then affixed to cover the skin for 48 hours. The abdomens of the animals were shaved on the 21st day after intradermal injection, and olive oil solutions containing 5% and 10% of a sclareol derivative sample of the present invention, or an olive oil solution containing 5% of a sclareol sample were affixed to cover the skin for 24 hours.

[1] = challenge concentration 5% in olive oil, After 24 Hours
[2] = challenge concentration 5% in olive oil, After 48 Hours
[3] = challenge concentration 10% in olive oil, After 24 Hours
[4] = challenge concentration 10% in olive oil, After 48 Hours

| Compound | PR: Sensitization rate (Number of positive animals/Number of animals used) [1] | MR: Mean score (average of reaction scores) [1] | PR: Sensitization rate (Number of positive animals/Number of animals used) [2] | MR: Mean score (average of reaction scores) [2] | PR: Sensitization rate (Number of positive animals/Number of animals used) [3] | MR: Mean score (average of reaction scores) [3] | PR: Sensitization rate (Number of positive animals/Number of animals used) [4] | MR: Mean score (average of reaction scores) [4] | Sensitization (result in words) (maximization test, guinea pigs) |
| --- | --- | --- | --- | --- | --- | --- | --- | --- | --- |
| C=C[C@@](C)(CC[C@@H]1[C@@]2(C)CCCC(C)(C)[C@@H]2CC[C@@]1(C)OC(C)=O)OC(C)=O [Diacetylated sclareol, diacetylated sclareol] | 0, (0) | 0, (0) | 0, (0) | 0, (0) | 0, (0) | 0, (0) | 0, (0) | 0, (0) | – |
| monoacetylated sclareol | 0, (0) | 0, (0) | 0, (0) | 0, (0) | 0, (0) | 0, (0) | 0, (0) | 0, (0) | – |
| C=C[C@@](C)(O)CCC1[C@@]2(C)CCCC(C)(C)C2CC[C@@]1(C)O (some centres unmarked) [Sclareol, sclareol, reference compound] | 4/10 | 0.4 | 4/10 | 0.4 | – | – | – | – | has skin sensitizing properties; also recorded: sensitization being confirmed |
| CC[C@](C)(O)CCC1[C@@]2(C)CCCC(C)(C)C2CC[C@@]1(C)O (some centres unmarked) [Hydrogenated sclareol, hydrogenated sclareol] | 0, (0) | 0, (0) | 0, (0) | 0, (0) | 0, (0) | 0, (0) | 0, (0) | 0, (0) | – |
